According to US4091097A, “Treatment of elevated histamine and uric acid levels” (Zaidan Hojin Biseibutsu Kagaku Kenkyu Kai, priority 1973, dated 1978):
Where two headings read alike, the source gives them in different places.

How the values were obtained:
[1] = molecular target: T1, histidine decarboxylase (Rattus norvegicus, UniProt P16453); test: Inhibition of Histidine Decarboxylase (14C-histamine formation); format: biochemical, fetal rats
T1 construct: a crude enzyme preparation obtained from fetal rats; from tissue
T1 sequence (P16453 1-656): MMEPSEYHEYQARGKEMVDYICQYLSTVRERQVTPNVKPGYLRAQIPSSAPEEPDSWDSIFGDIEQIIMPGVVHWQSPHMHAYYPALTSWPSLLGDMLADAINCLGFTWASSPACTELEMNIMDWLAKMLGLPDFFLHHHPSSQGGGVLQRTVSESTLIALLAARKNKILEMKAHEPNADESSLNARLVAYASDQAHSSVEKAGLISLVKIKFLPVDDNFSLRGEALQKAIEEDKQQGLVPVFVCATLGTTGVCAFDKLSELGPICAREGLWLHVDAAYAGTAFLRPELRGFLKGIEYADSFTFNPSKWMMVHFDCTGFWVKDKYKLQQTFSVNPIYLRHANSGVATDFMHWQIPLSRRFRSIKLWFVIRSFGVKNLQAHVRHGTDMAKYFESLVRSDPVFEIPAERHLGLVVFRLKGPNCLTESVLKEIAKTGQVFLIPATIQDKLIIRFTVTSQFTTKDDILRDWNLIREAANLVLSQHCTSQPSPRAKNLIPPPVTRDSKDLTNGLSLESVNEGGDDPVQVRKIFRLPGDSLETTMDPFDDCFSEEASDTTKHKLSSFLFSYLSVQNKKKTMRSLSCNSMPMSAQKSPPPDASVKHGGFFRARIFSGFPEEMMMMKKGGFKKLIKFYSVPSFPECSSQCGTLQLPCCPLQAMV
Protocol: After two hours of incubation at 37° C., the histamine 2-^14 C formed was collected on an ion exchange resin ("Amberlite" CG-50, ammonia type) from which, after washing with water, the histamine was liberated in 1N aqueous ammonia solution and radioactivity was measured.

[2] = tested on: acetic acid-induced stretching movements; test: Analgesic Activity in mice (acetic acid stretching); format: in vivo, mice (DDY Strain); details: control (no drug) 53
Protocol: Male mice of the DDY Strain having mean body weight of 20 g. were divided to the groups of 10 animals each, to which compounds of this invention or aminopyrine in saline solution were administered intraperitoneally (i.p.). The dosage was 200, 50 or 12.5 mg./kg. Then 30 minutes later, 0.2 ml. per 20 g. body weight of 0.7% acetic acid in saline was injected intraperitoneally and the number of characteristic stretching movements counted for 20 minute period and compared with a control group receiving no analgesic.

[3] = tested on: pyrexia induced by TTG No. 2; test: Antipyretic Activity in Pyrexia-Induced Rabbits; format: in vivo, Japanese rabbits; details: 200 mg./kg. oral
Protocol: Common white male Japanese rabbits, 2.0 - 3.0 kg. body weight, were injected through the ear vein with 20 μg./kg. of a pyrexia inducer TTG No. 2, purified polysaccharide preparation obtained from Pseudomonas aeruginosa (marketed by Fujisawa Pharmaceutical Company, Japan), and the body temperature was monitored with a rectal thermister-type thermometer. Three hours prior to the TTG injection four rabbits in each experimental section orally received the test drug in the dose of 200 mg./kg. One group received aspirin in a dose of 100 mg./kg and a control group no drug.

[4] = tested on: anaphylactic shock (egg albumin); test: Effect on the Anaphylactic Shock in Mice; format: in vivo, mice (DDY Strain)
Protocol: DDY Strain mice were sensitized by subcutaneous injection of a mixture of 0.1 ml. (100 μg.) egg albumin (Nutritional Biochemical Corp. U.S.A., 5 times crystallized) and 0.1 ml. Freund's complete adjuvant (Difco Co., U.S.A.) in saline. The mice were used for the test 3 months thereafter. The sensitized animals were divided in 3 groups of 4 animals each, which were subcutaneously administered the test compound several times before antigen challenge to cause anaphylactic shock. Group 1 received 100 mg./kg. 19 hours before and 50 mg./kg. 9, 4 and 1 hour before challenge. Group 2 received 100 mg./kg. 9 hours before and 50 mg./kg. 4 and 1 hour before challenge. Group 3 was a control group and received only saline solution.

[5] = Acute toxicity, rats; details: rat, in vivo, printed 'for oral administration', then first of 'respective administration'
Protocol: The acute toxicity was determined for oral and intraperitoneal administration with mice and rats (6 mice and 2 rats in one dose group), and the LD50 value, i.e., the single application dose killing 50% of the test animals, was estimated.

[6] = tested on: rats; test: Subacute toxicity, daily doses for 32 consecutive days; format: in vivo; details: 3.1, 12.5, 50 and 200 mg./kg. daily, oral or i.p., 32 days
[7] = tested on: histidine decarboxylase; details: cited from earlier work
[8] = tested on: animals; details: cited from earlier work
[9] = tested on: animals; details: cited from earlier work; remark: listed apart in the source
[10] = 2 hrs. after TTG, control (no drug) 1.2
[11] = 4 hrs. after TTG, control (no drug) 1.6
[12] = Group 1 (100 mg./kg. 19 h, 50 mg./kg. 9, 4, 1 h before), mouse 1, control 5
[13] = Group 2 (100 mg./kg. 9 h, 50 mg./kg. 4, 1 h before), mouse 1, control 5

O=C(Nc1cc(Cl)c(O)c(Cl)c1)c1ccccc1O [Compound 1]
IC50 [1]: 0.022 µM | Analgesic Activity: Stretching Count (20 minutes) ([2]; 50 mg./kg. i.p.): 11 | Analgesic Activity: Stretching Count (20 minutes) ([2]; 200 mg./kg. i.p.): 4 | Antipyretic Activity: Elevation of Body Temperature [3, 10]: 0.6 °C | Antipyretic Activity: Elevation of Body Temperature [3, 11]: 0.5 °C | Symptoms emerged, time after challenge [4, 12]: 15 min | Died, time after challenge ([4]; Group 1, mouse 1, control 15): 30 min | Symptoms emerged, time after challenge ([4]; Group 1, mouse 2, control 3): 20 min | Died, time after challenge ([4]; Group 1, mouse 2, control 20): 35 min | Symptoms emerged, time after challenge [4, 13]: 35 min | Symptoms emerged, time after challenge ([4]; Group 2, mouse 2, control 3): 10 min | Died, time after challenge ([4]; Group 2, mouse 2, control 20): 30 min | Symptoms emerged, time after challenge ([4]; Group 2, mouse 3, control 7): 25 min | Symptoms emerged, time after challenge ([4]; Group 2, mouse 4, control 3): 20 min | Died, time after challenge ([4]; Group 2, mouse 4, control 20): 40 min | LD50 [5]: 2200 mg/kg | disease symptoms or abnormality attributable to drug dosing [6]: no particular disease symptoms or abnornality attributable to the drug dosing was noted | weight gain [6]: the weight gain was normal

Cc1cc(OC(=O)c2c(C)cc(O)cc2O)cc(O)c1C(=O)O [Lecanoric acid, 4'-carboxy-2,3'-dimethyl-4,6,5'-trihydroxyphenylbenzoate]
inhibitory activity to histidine decarboxylase (in words) [7]: strong inhibitory activity | anti-inflammatory activity (in words) [8]: only weak anti-inflammatory activity | hydrolysis in animals [9]: hydrolysed in animals

CCC(=O)Oc1ccccc1C(=O)Nc1cc(Cl)c(OC(=O)CC)c(Cl)c1 [Compound 33]
IC50 ([1]; pH 6.8, two hours at 37° C., read-out: Histidine Decarboxylase Inhibition ID50): 0.039 µM | Analgesic Activity: Stretching Count (20 minutes) ([2]; 50 mg./kg. i.p.): 12 | Analgesic Activity: Stretching Count (20 minutes) ([2]; 200 mg./kg. i.p.): 5 | Antipyretic Activity: Elevation of Body Temperature [3, 10]: 0.6 °C | Antipyretic Activity: Elevation of Body Temperature [3, 11]: 0.5 °C | Symptoms emerged, time after challenge [4, 12]: 10 min | Died, time after challenge ([4]; Group 1, mouse 1, control 15): 30 min | Symptoms emerged, time after challenge ([4]; Group 1, mouse 2, control 3): 25 min | Symptoms emerged, time after challenge ([4]; Group 1, mouse 3, control 7): 30 min | Symptoms emerged, time after challenge [4, 13]: 20 min | Died, time after challenge ([4]; Group 2, mouse 1, control 15): 40 min | Symptoms emerged, time after challenge ([4]; Group 2, mouse 2, control 3): 20 min | Died, time after challenge ([4]; Group 2, mouse 2, control 20): 45 min | Symptoms emerged, time after challenge ([4]; Group 2, mouse 3, control 7): 30 min | Died, time after challenge ([4]; Group 2, mouse 4, control 20): 40 min | disease symptoms or abnormality attributable to drug dosing [6]: no particular disease symptoms or abnornality attributable to the drug dosing was noted | weight gain [6]: the weight gain was normal
